Patent US20150005288A1, “SUBSTITUTED PHENYLIMIDAZOPYRAZOLES AND USE THEREOF” (Bayer Intellectual Property GmbH, priority 2012, published 2015)

Experiments:
endogenous Tie2 receptor = molecular target: T1, endogenous Tie2 receptor (Homo sapiens, UniProt Q02763); test: Tie2-pTyr-ELISA: autophosphorylation of endogenous Tie2 receptor in HUVEC; format: cell-based; conditions: autophosphorylation elevated by sodium orthovanadate (4 mM), Tie2/phosphotyrosine sandwich ELISA, from 2-7 independent measurements
T1 construct: the endogenous Tie2 receptor; host or cells: HUVEC (human umbilical vein endothelial cells)
Experimental: The cellular activity of the compounds according to the invention as Tie2 kinase inhibitors was determined in human endothelial cells (HUVEC) by measuring the inhibition of the autophosphorylation, elevated by treatment with sodium orthovanadate, of the endogenous Tie2 receptor by means of a Tie2/phosphotyrosine sandwich ELISA.
Human endothelial cells (human umbilical vein endothelial cells, HUVEC) were obtained from Cellsystems (FC-0003), cultured in Vasculife VEGF complete medium (Cellsystems, LL-1020) with 2% foetal calf serum (FCS) at 37° C./5% CO2 and used for Tie2-ELISA measurements up to passage 8.
HUVEC were plated in a culture volume of 100 μl of Vasculife VEGF complete medium at a cell density of 30 000 cells per well in transparent collagen-coated 96-well cell culture plates (Falcon, #353075) and incubated in an incubation cabinet at 37° C./5% CO2 overnight. The test substances dissolved in DMSO were used to prepare in each case one dilution series in Vasculife VEGF low-serum medium [basal medium with LifeFactors (Cellsystems, LM-0002), without FCS, with 0.1% BSA] without sodium orthovanadate and one dilution series in Vasculife VEGF low-serum-medium with 8 mM sodium orthovanadate in the desired concentrations in the range from 10 pM to 10 μM, the final DMSO concentration being 1%. After removal of the complete medium, 100 μl per well of the dilute substances in low-serum medium without sodium orthovanadate were pipetted onto the cells, and the plates were incubated in an incubation cabinet at 37° C./5% CO2 for 10 min. A further 100 μl of the same substance dilution in low-serum medium with 8 mM sodium orthovanadate were then pipetted into the respective well and the cells were incubated in a volume of now 200 μl in the presence of 4 mM sodium orthovanadate at the desired substance concentration in an incubation cabinet at 37° C./5% CO2 for a further 20 min. The cell supernatant of the plates was then removed and the cells were washed once with 250 μl per well of cold PBS which contained 4 mM sodium orthovanadate. 120 μl of Duschl lysis buffer [50 mM HEPES pH 7.2, 150 mM NaCl, 1 mM MgCl2, 10% glycerol, 1.5% Triton X-100, 4 mM sodium orthovanadate, 250 μl S-PIC phosphatase inhibitor cocktail 2 (Sigma, P5726) and 1 tablet of Complete proteinase inhibitor mixture (Roche, #1836145) per 10 ml] were then added to the cells in each well. The plates were shaken briefly and then incubated on ice for 20 min, and the lysates in the cell culture plates were then frozen at −80° C. for at least 30 min.
For measuring the autophosphorylation of the endogenous Tie2 receptor in the cell lysates prepared, a self-prepared anti-Tie2 antibody directed against the N-terminus of the Tie-2 receptor (1.09 mg/ml) and an HRP-coupled anti-phosphotyrosine antibody (Sigma, A4595, clone pY-20) were used. White 96-well ELISA plates (Lumitrac600, Greiner, #655074) were incubated with 100 μl per well of a 1:1000 dilution of the anti-Tie2 antibody in coating buffer [15 mM Na2CO3, 35 mM NaHCO3, pH 9.6] with shaking at 4° C. overnight. The coated ELISA plates were washed three times with 250 μl PBST buffer [0.1% Tween-20 in PBS], the wells were blocked with 250 μl 3% BSA in PBST buffer with shaking at RT for 1-6 h and washed three more times with 250 μl PBST buffer. From the cell lysate plates thawed in the fridge, in each case 100 μl of lysate were transferred into the coated wells of the ELISA plates, and the plates were incubated with shaking at 4° C. overnight. The plates were washed three times with in each case 250 μl of PBST buffer, and 100 μl of a 1:5000 dilution of the anti-phosphotyrosine HRP antibody in 3% Prionex (Calbiochem, #529600) in PBST were then pipetted into each well and the plates were incubated with shaking and protected from light at 4° C. overnight. […]

[1] = molecular target: T2, intracellular domain of human Tie2 (GST fusion protein) (Homo sapiens, UniProt Q02763); test: Tie2 kinase assay (Tie2-TR-FRET); format: biochemical; conditions: ATP concentration 1 mM, in some cases means of several independent determinations
T2 construct: intracellular domain of human Tie2 (amino acids 776-1124); made in house; host or cells: Baculovirus-infected insect cells (Hi5)
Summary of the method: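 GST fusion of human Tie2 intracellular domain (aa 776-1124, Hi5-expressed), ~30 ng/ml, pre-incubated 15 min with compound, then 1 mM ATP and 1 μM biotinylated peptide, 60 min at 22 °C, pH 7. TR-FRET (Eu anti-phosphotyrosine/streptavidin-XL665, 665/620 nm ratio). […] 20 μM–0.073 nM in duplicate; IC50 by 4-parameter fit.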

T2 sequence (Q02763 776-1124): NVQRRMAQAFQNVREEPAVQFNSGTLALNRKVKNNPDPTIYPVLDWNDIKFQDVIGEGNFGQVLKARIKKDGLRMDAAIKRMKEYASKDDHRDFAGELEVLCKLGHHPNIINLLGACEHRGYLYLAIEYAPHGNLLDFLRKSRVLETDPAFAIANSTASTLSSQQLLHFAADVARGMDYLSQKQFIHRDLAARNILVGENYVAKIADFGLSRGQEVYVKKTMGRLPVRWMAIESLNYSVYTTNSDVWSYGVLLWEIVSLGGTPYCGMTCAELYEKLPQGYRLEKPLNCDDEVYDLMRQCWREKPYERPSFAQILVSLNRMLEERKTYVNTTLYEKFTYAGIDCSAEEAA
T1 sequence (Q02763 23-1124): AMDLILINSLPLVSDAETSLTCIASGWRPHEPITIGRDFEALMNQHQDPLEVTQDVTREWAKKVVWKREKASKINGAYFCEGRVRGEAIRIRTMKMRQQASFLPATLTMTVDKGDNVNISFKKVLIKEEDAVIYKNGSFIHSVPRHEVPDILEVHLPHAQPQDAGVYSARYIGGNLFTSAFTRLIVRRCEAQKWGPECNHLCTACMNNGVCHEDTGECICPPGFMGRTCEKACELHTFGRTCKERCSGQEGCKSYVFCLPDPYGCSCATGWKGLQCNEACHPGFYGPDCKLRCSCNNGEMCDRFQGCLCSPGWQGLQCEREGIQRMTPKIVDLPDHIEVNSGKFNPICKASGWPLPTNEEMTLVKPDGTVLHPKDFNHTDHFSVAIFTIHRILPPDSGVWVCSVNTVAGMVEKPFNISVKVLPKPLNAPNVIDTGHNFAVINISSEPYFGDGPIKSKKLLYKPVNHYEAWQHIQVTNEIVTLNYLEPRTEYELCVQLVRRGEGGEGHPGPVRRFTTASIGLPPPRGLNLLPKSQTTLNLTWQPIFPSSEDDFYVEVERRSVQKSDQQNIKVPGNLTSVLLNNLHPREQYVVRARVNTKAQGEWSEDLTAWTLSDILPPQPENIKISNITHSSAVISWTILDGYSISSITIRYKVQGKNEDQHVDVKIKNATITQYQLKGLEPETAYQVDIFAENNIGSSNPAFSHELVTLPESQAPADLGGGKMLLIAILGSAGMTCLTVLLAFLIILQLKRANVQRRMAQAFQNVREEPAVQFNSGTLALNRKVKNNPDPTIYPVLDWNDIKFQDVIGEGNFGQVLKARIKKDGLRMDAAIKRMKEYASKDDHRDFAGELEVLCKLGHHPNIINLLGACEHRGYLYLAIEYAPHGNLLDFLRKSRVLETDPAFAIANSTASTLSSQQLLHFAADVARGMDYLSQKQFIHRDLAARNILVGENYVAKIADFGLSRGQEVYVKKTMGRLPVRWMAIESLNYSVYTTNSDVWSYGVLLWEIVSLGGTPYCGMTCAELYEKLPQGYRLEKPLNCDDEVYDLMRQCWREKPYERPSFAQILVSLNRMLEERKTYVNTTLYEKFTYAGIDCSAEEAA

Compound | IC50 (endogenous Tie2 receptor) | IC50 [1]
Cc1ccc(NC(=O)c2cc(F)cc(S(F)(F)(F)(F)F)c2)cc1-n1ccn2nc(-c3cccnc3)cc12 [Example 88, 3-Fluoro-N-{4-methyl-3-[6-(pyridin-3-yl)-1H-imidazo[1,2-b]pyrazol-1-yl]phenyl}-5-(pentafluoro-λ^6-sulphanyl)benzamide] | 41 nM | 23 nM
Cc1cc(NC(=O)c2cc(C#N)cc(S(F)(F)(F)(F)F)c2)cc(-n2ccn3nc(-c4cccnc4)cc23)c1C [Example 102, 3-Cyano-N-{3,4-dimethyl-5-[6-(pyridin-3-yl)-1H-imidazo[1,2-b]pyrazol-1-yl]phenyl}-5-(pentafluoro-λ^6-sulphanyl)benzamide] | 18 nM | 19 nM
Cc1cc(C)c(-n2ccn3nc(-c4cccnc4)cc23)cc1NC(=O)c1cc(F)cc(S(F)(F)(F)(F)F)c1 [Example 107, N-{2,4-Dimethyl-5-[6-(pyridin-3-yl)-1H-imidazo[1,2-b]pyrazol-1-yl]phenyl}-3-fluoro-5-(pentafluoro-λ^6-sulphanyl)benzamide] | 0.9 nM | 0.6 nM
COCc1cc(C(=O)Nc2cc(-n3ccn4nc(-c5cccnc5)cc34)c(C)cc2C)cc(S(F)(F)(F)(F)F)c1 [Example 112, N-{2,4-Dimethyl-5-[6-(pyridin-3-yl)-1H-imidazo[1,2-b]pyrazol-1-yl]phenyl}-3-(methoxymethyl)-5-(pentafluoro-λ^6-sulphanyl)benzamide] | 1.4 nM | 0.7 nM
Cc1cc(C)c(-n2ccn3nc(-c4cccnc4)cc23)cc1NC(=O)c1cc(C#N)nc(C(C)(C)C)c1 [Example 116, 2-tert-Butyl-6-cyano-N-{2,4-dimethyl-5-[6-(pyridin-3-yl)-1H-imidazo[1,2-b]pyrazol-1-yl]phenyl}-isonicotinamide] | 2.9 nM | 0.5 nM
Cc1cc(Cl)c(-n2ccn3nc(-c4cccnc4)cc23)cc1NC(=O)c1cccc(S(F)(F)(F)(F)F)c1 [Example 157, N-{4-Chloro-2-methyl-5-[6-(pyridin-3-yl)-1H-imidazo[1,2-b]pyrazol-1-yl]phenyl}-3-(pentafluoro-λ^6-sulphanyl)benzamide] | 1 nM | 0.5 nM
Cc1ccc(NC(=O)c2cc(C#N)cc(S(F)(F)(F)(F)F)c2)cc1-n1ccn2nc(-c3cnccn3)cc12 [Example 162, 3-Cyano-N-{4-methyl-3-[6-(pyrazin-2-yl)-1H-imidazo[1,2-b]pyrazol-1-yl]phenyl}-5-(pentafluoro-λ^6-sulphanyl)benzamide] | 8.9 nM | 28 nM
